Assay results as given in US9539300B2, “Modulating disease through genetic engineering of plants” (The Regents of the University of California, priority 2012, dated 2017).
Entries after “also recorded” stand apart in the source; their conditions may differ. Where two headings read alike, the source gives them in different places. Values belong to the substance of their own block, whether it stands above or below them. Square brackets hold non-standard residues; d marks the D form. Ends that are not written are not given here.

Experiments:
human artery wall cells = conditions: cited from earlier work; for inhibition of LDL-induced MCP-1 production by cultured human artery wall cells: Datta et al. (2001); for inhibiting monocyte chemotactic activity production by human artery wall cells exposed to human LDL: FIG. 1, adapted from Datta et al. (2001)
mice [1] = assay: 4F peptide without end groups in mice; assay type: in vivo
Source text: The 4F peptide (Ac-D-W-F-K-A-F-Y-D-K-V-A-E-K-F-K-E-A-F-NH2, (SEQ ID NO:1)) has end blocking groups (Ac— and —NH2) that stabilize the class A amphipathic helix and dramatically increase efficacy (Venkatachalapathi et al. (1993) Proteins Structure Function Genet. 15: 349-359; Yancey et al. (1995) Biochemistry. 34: 7955-7965; Datta et al. (2001) J. Lipid Res. 42: 1096-1104; Anantharamaiah et al. (2007) J. Lipid Res., 48: 1915-1923). […] The required end (protecting) groups for 4F and for a number of other apoA-I mimetic peptides (Navab et al. (2010) Arterioscler. Thromb. Vasc. Biol. 30: 164-168) can only be added by chemical synthesis; living organisms cannot be engineered to make a molecule containing these end groups. Thus, the production of peptide for clinical use at these doses would not be practical because of the cost of producing this amount of peptide by solid phase synthesis.
Unfortunately, producing sufficient peptide to make therapy in humans practical was not likely because the 4F peptide requires end blocking groups that can only be added through chemical synthesis. […] This led us to seek alternative peptides synthesized from all L-amino acids that might be effective without end blocking groups.

[2] = system: mouse model of ovarian cancer; conditions: cited from earlier work
apoE−/− mice [3] = conditions: cited from earlier work
[4] = system: apolipoprotein (apo)E null mice; conditions: cited from earlier work
[5] = system: LDL-induced monocyte chemoattractant protein-1 (MCP-1) production by cultured human artery wall cells; conditions: cited from earlier work
cholesterol-fed rabbits = conditions: 10 mg/kg/day; cited from earlier work
[6] = in vivo; cited from earlier work
LDLR−/− mice [7] = conditions: cited from earlier work
LDLR−/− mice [8] = conditions: cited from earlier work; for intact peptide in plasma after oral administration: mouse, in vivo; for inflammatory properties of HDL and LDL in a cell-based assay: single dose 5 mg/kg by stomach tube, four hours, 5 mg/kg
[9] = system: enzymes involved in the formation of LPA; assay: Microarray of gene expression in the small intestine; assay type: in vivo, mice; conditions: Western Diet or chow, D-4F in drinking water
Procedure: To explore the mechanism of action, a microarray experiment to determine gene expression levels in the small intestine from mice fed the Western Diet or a chow diet and given or not given D-4F in their drinking water was performed. It was previously shown that D-4F administration reduces LPA levels similar to transgenic 6F tomatoes.

[10] = system: apoE−/− mice made diabetic; conditions: oral administration; cited from earlier work
apoE−/− mice [11] = conditions: cited from earlier work; remark: listed apart in the source
[12] = Identification and quantification of 6F in small intestine and plasma; assay type: in vivo, mice
Procedure: Female LDLR−/− mice 8-9 months of age (n=6) were fasted overnight and fed WD with transgenic 6F lyophilized tomato powder added to WD to provide 900 μg of 6F in 2 grams of diet. Over a period of 30-90 minutes, each mouse ate all of the 2 grams of diet. Approximately 2 hours after finishing the food the mice were bled and the small intestine was obtained (including contents), homogenized in acetonitrile:water (1:1), chromatographed by HPLC and subjected to SDS PAGE as described in Materials and Methods of Example 3. Plasma was lyophilized and resuspended in acetonitrile:water (1:1), chromatographed by HPLC and subjected to SDS PAGE as described in Materials and Methods of Example 3. […] The lanes were scanned for quantification as described in Materials and Methods of Example 3.
For analysis of the small intestine, 200 mg of small intestine (including contents) were homogenized in 10 mL of acetonitrile:water (1:1) and the homogenates were lyophilized and re-suspended in 400 μL of acetonitrile:water (1:1). […] Samples were run on HPLC using a C-18 Reverse Phase analytical column and a gradient solvent system of acetonitrile: water (30% to 80% in 20 min) in the presence of 0.1% TFA and monitored at 280 nm. […]
The data presented above indicate that the peptide in the transgenic 6F tomatoes is acting in the small intestine. […] No 6F peptide was detected in the plasma of any of the six mice. […]

mice [13] = conditions: mouse, in vivo; cited from earlier work
[14] = doses of 4.5 and 45 mg/kg, oral or SQ

Substance: Ac-D-W-F-K-A-F-Y-D-K-V-A-E-K-F-K-E-A-F-NH2 (Ac-DWFKAFYDKVAEKFKEAF-NH2) [4F]
- inhibition of LDL-induced MCP-1 production by cultured human artery wall cells (human artery wall cells): highly effective
- inhibiting monocyte chemotactic activity production by human artery wall cells exposed to human LDL (human artery wall cells): indistinguishable
- fold less effective in vivo in the absence of the end groups (mice [1]; mice, without Ac- and -NH2 end groups, unpublished studies): 25,000 fold
- number of tumor nodules ([2]; mouse, in vivo): reduction
- tumor volume ([2]; mouse, in vivo): significant reduction
- plasma levels of free oxidized fatty acids (5-HETE, 15-HETE, 9-HODE, 13-HODE) (apoE−/− mice [3]; after administration of the 4F peptide): significantly decreased
- esterified oxidized fatty acid levels (apoE−/− mice [3]; mouse, in vivo): unchanged
- plasma levels of 20-HETE (apoE−/− mice [3]; mouse, in vivo): did not decrease

Substance: Ac-D-W-F-K-A-F-Y-D-K-V-A-E-K-F-K-E-A-F-NH2 [D-4F] (Ac-[dD][dW][dF][dK][dA][dF][dY][dD][dK][dV][dA][dE][dK][dF][dK][dE][dA][dF]-NH2) [4F peptide synthesized from all D-amino acids]
- reduction of aortic atherosclerosis ([4]; 45 mg/kg/day, Western diet, orally or SQ): ~50%
- plasma levels of SAA ([4]; 45 mg/kg/day, Western diet): significantly reduced
- plasma levels of lysophosphatidic acid ([4]; 45 mg/kg/day, Western diet): significantly reduced
- HDL inflammatory index ([4]; doses of 0.15 or 0.45 mg/kg): did not
- plasma serum amyloid A (SAA) levels ([4]; doses of 0.15 or 0.45 mg/kg): did not
- HDL inflammatory index [4, 14]: significantly reduced
- plasma serum amyloid A (SAA) levels [4, 14]: significantly reduced
- HDL inflammatory index (HII) ([5]; oral doses of 0.43 and 1.43 mg/kg): not effective
- HDL inflammatory index (HII) ([5]; oral doses of 4.3 and 7.14 mg/kg): significantly improved
- efficacy of L-4F and D-4F by injection (cholesterol-fed rabbits): identical
- clearance from tissues, particularly liver and kidney [6]: delayed clearance
- changes in SAA, triglycerides, HDL-cholesterol and paroxonase activity induced by feeding 15-HETE in chow (LDLR−/− mice [7]; SQ D-4F, chow without WD): significantly ameliorated
- HDL-cholesterol (LDLR−/− mice [7]; SQ or oral): increased
- plasma SAA levels (LDLR−/− mice [7]; SQ or oral): reduced
- plasma triglyceride levels (LDLR−/− mice [7]; SQ or oral): reduced
- levels of 20-HETE (LDLR−/− mice [7]; SQ or orally): unchanged
- levels of free metabolites of arachidonic and linoleic acids in intestine, liver and hepatic bile (LDLR−/− mice [7]; SQ or orally): significantly reduced
- intact peptide in plasma after oral administration (LDLR−/− mice [8]): intact peptide identified
- inflammatory properties of HDL and LDL in a cell-based assay (LDLR−/− mice [8]): dramatically and significantly improved
- expression of enzymes involved in the formation of LPA [9]: none of the enzymes involved in the formation of LPA changed their expression significantly
- aortic atherosclerosis [10]: significantly decreased
- hepatic content of free arachidonic acid and free oxidized fatty acids [10]: significantly decreased
- other plasma lipid or lipoprotein levels [10]: without affecting

Substance: Ac-D-W-F-K-A-F-Y-D-K-V-A-E-K-F-K-E-A-F-NH2 [L-4F] (Ac-DWFKAFYDKVAEKFKEAF-NH2)
- HDL inflammatory index (HII) ([5]; 0.042-1.43 mg/kg IV or SQ): no improvement
- efficacy of L-4F and D-4F by injection (cholesterol-fed rabbits): identical
- clearance from tissues, particularly liver and kidney [6]: this was not the case
- LPA levels ([2]; L-4F containing blocking groups, b323: in mouse chow, 100 mg/kg/day): significantly reduced; also recorded: significantly decreased
- tumor burden ([2]; in mouse chow, 100 mg/kg/day): significantly decreased
- aortic lesions (apoE−/− mice [11]; L-4F administered with niclosamide): induced lesion regression
- aortic atherosclerosis (apoE−/− mice [11]; in chow 10 mg/kg/day for six months with low dose statin in drinking water): did not significantly change
- intact peptide in plasma after oral administration (LDLR−/− mice [8]): virtually no intact peptide
- inflammatory properties of HDL and LDL in a cell-based assay (LDLR−/− mice [8]): not

Substance: DWFKAFYDKFFEKFKEFF [7F, apoA-I mimetic peptide]
- inhibition of LDL-induced MCP-1 production by cultured human artery wall cells (human artery wall cells): did not

Substance: DWFKAFYDKVAEKFKEAF [4F peptide without end blocking groups, 4F peptide lacking the Ac- and -NH2 end groups]
- activity of the peptide without end blocking groups (mice [1]; mouse models, data not shown): dramatically reduced

- 6F peptide in the plasma (not detected; lower limit of detection) ([12]; ~2 hours after eating 900 μg of 6F in transgenic 6F tomato powder): < 100 ng/mL
Substance: DWLKAFYDKFFEKFKEFF [6F, D-W-L-K-A-F-Y-D-K-F-F-E-K-F-K-E-F-F]
- intact 6F peptide in the small intestine (Mean±SD) ([12]; ~2 hours after eating 900 μg of 6F in transgenic 6F tomato powder in 2 grams of WD, n=6): 15.6±7.4 μg 6F per 200 mg small intestine

Substance: DWLKAFYDKVAEKLKEAF [2F, apoA-I mimetic peptide with phenylalanine at positions 6 and 18]
- inhibition of LDL-induced MCP-1 production by cultured human artery wall cells (human artery wall cells): not very effective
- diet induced atherosclerosis in mice (mice [13]): failed to decrease

Substance: DWLKAFYDKVFEKFKEFF [5F, apoA-I mimetic peptide]
- inhibition of LDL-induced MCP-1 production by cultured human artery wall cells (human artery wall cells): able to efficiently inhibit
- inhibiting monocyte chemotactic activity production by human artery wall cells exposed to human LDL (human artery wall cells): indistinguishable
- diet induced atherosclerosis in mice (mice [13]): inhibiting atherosclerosis
- tumor angiogenesis in mice (mice [13]): inhibiting tumor angiogenesis
